Tested on: 460 barcoded cancer cell lines
Assay: PRISM pooled barcoded cancer cell line growth screen, 10-point dose-response, 5 days, AUC
Format: cell-based
Design: scale not given here
From the text: Several small molecule inhibitors of distinct protein domains of EP300/CBP are available, though the majority target the histone acetyltransferase domain (HAT) or bromodomain (BRD)[5],[10],[21],[22]. […] We used these tools to investigate the relative contribution of the EP300/CBP BRD or HAT domain to tumor cell growth (Fig. 1a). To do so, we performed 10-point, dose-response growth assays using mixed pools of 460 barcoded cancer cell lines, over five days of treatment in vitro[33],[34]. Growth was measured using an area-under-the-curve (AUC) approach (Supplementary Table 1, Supplementary Fig. 1a). […] Given potential differences in compound penetration and solubility, and to compare the relative cell line and tumor-specific effects of these two compounds in assays performed non-simultaneously, we performed a median normalization of each dataset (Supplementary Table 2).

CNC(=O)Nc1ccc2c(c1)CCC21OC(=O)N(CC(=O)N(Cc2ccc(F)cc2)C(C)C(F)(F)F)C1=O (stereo not shown) [Compound A485]
AUC (SH4, Melanoma): 0.7491 | AUC (SH10TC, Gastric Cancer): 0.9483 | AUC (SHP77, Lung Cancer): 1 | AUC (SIMA, Neuroblastoma): 0.7689 | AUC (SJSA1, Osteosarcoma): 0.6938 | AUC (SKES1, Ewing Sarcoma): 0.5686 | AUC (SKHEP1, Liver Cancer): 0.9176 | AUC (SKM1, AML): 0.6691 | AUC (SKMEL30, Melanoma): 0.8035 | AUC (SKMES1, Lung Cancer): 0.6858 | AUC (SKMM2, Myeloma): 0.9139 | AUC (SKNAS, Neuroblastoma): 0.7465 | AUC (SKNBE2, Neuroblastoma): 0.711 | AUC (SKNDZ, Neuroblastoma): 0.8727 | AUC (SKNEP1, Ewing Sarcoma): 0.6902 | AUC (SKNMC, Ewing Sarcoma): 0.8779 | AUC (SKNO1, AML): 0.8126 | AUC (SKNSH, Neuroblastoma): 0.7441 | AUC (SKOV3, Ovarian Cancer): 0.768 | AUC (SKUT1, Leiomyosarcoma): 0.8397 | AUC (SNU1, Gastric Cancer): 1 | AUC (SNU46, Head and Neck Cancer): 0.6485 | AUC (SNU61, Colon/Colorectal Cancer): 0.8187 | AUC (SNU81, Colon/Colorectal Cancer): 0.8344 | AUC (SNU182, Liver Cancer): 0.5802 | AUC (SNU201, Glioblastoma): 0.8259 | AUC (SNU213, Pancreatic Cancer): 0.8601 | AUC (SNU216, Gastric Cancer): 0.8096 | AUC (SNU245, Bile Duct Cancer): 0.7564 | AUC (SNU398, Liver Cancer): 0.8358 | AUC (SNU407, Colon/Colorectal Cancer): 0.7333 | AUC (SNU423, Liver Cancer): 0.7846 | AUC (SNU449, Liver Cancer): 0.9343 | AUC (SNU466, Glioblastoma): 0.8159 | AUC (SNU478, Bile Duct Cancer): 0.7556 | AUC (SNU601, Gastric Cancer): 0.8298 | AUC (SNU668, Gastric Cancer): 0.8689 | AUC (SNU685, Endometrial/Uterine Cancer): 0.8766 | AUC (SNU719, Gastric Cancer): 0.9255 | AUC (SNU869, Bile Duct Cancer): 0.9315 | AUC (SNU878, Liver Cancer): 0.7163 | AUC (SNU886, Liver Cancer): 0.7207 | AUC (SNU1041, Head and Neck Cancer): 0.836 | AUC (SNU1066, Head and Neck Cancer): 0.7809 | AUC (SNU1076, Head and Neck Cancer): 0.7922 | AUC (SNU1077, Endometrial/Uterine Cancer): 0.8978 | AUC (SNU1079, Bile Duct Cancer): 0.8976 | AUC (SNU1105, Glioblastoma): 0.823 | AUC (SNU1196, Bile Duct Cancer): 0.8191 | AUC (SNU1214, Head and Neck Cancer): 0.7713 | AUC (SNUC2A, Colon/Colorectal Cancer): 1 | AUC (SNUC4, Colon/Colorectal Cancer): 0.6416 | AUC (SQ1, Lung Cancer): 0.8347 | AUC (SR786, Lymphoma): 0.6609 | AUC (STM9101, Rhabdoid): 0.89 | AUC (SUDHL8, Lymphoma): 0.5295 | AUC (SW48, Colon/Colorectal Cancer): 1 | AUC (SW579, Thyroid Cancer): 0.7659 | AUC (SW620, Colon/Colorectal Cancer): 0.9454 | AUC (SW780, Bladder Cancer): 0.7867 | AUC (SW837, Colon/Colorectal Cancer): 0.675 | AUC (SW900, Lung Cancer): 0.774 | AUC (SW948, Colon/Colorectal Cancer): 0.5667 | AUC (SW1088, Glioma): 0.7952 | AUC (SW1116, Colon/Colorectal Cancer): 0.9547 | AUC (SW1463, Colon/Colorectal Cancer): 0.6958 | AUC (SW1710, Bladder Cancer): 0.7157 | AUC (T3M10, Lung Cancer): 0.9036 | AUC (T24, Bladder Cancer): 0.9232 | AUC (T47D, Breast Cancer): 0.9704 | AUC (TALL1, T-acute leukemia): 0.6985 | AUC (TC71, Ewing Sarcoma): 0.9262 | AUC (TC106, Ewing Sarcoma): 0.5807 | AUC (TC205, Ewing Sarcoma): 0.554 | AUC (TCCPAN2, Pancreatic Cancer): 0.884 | AUC (TCCSUP, Bladder Cancer): 0.8481 | AUC (TE1, Esophageal Cancer): 0.8516 | AUC (TE4, Esophageal Cancer): 0.8986 | AUC (TE5, Esophageal Cancer): 0.8355 | AUC (TE6, Esophageal Cancer): 0.6845 | AUC (TE9, Esophageal Cancer): 0.9819 | AUC (TE10, Esophageal Cancer): 0.7055 | AUC (TE11, Esophageal Cancer): 0.5915 | AUC (TE15, Esophageal Cancer): 0.6898 | AUC (TE617T, Rhabdomyosarcoma): 0.7575 | AUC (TF1, AML): 0.4573 | AUC (TM87, Rhabdoid): 0.6723 | AUC (TOLEDO, Lymphoma): 0.9051 | AUC (TOV21G, Ovarian Cancer): 0.8786 | AUC (TT2609C02, Thyroid Cancer): 0.6078 | AUC (TT, Thyroid Cancer): 0.6637 | AUC (TTC442, Rhabdomyosarcoma): 0.8716 | AUC (TTC549, Rhabdoid): 0.683 | AUC (TTC642, Rhabdoid): 0.604 | AUC (TTC1240, Rhabdoid): 0.6274 | AUC (TYKNU, Ovarian Cancer): 0.7341 | AUC (U2OS, Osteosarcoma): 0.9217 | AUC (U266B1, Myeloma): 0.8925 | AUC (U937, AML): 0.6875 | AUC (UACC62, Melanoma): 0.717 | AUC (UACC257, Melanoma): 0.8193 | AUC (UBLC1, Bladder Cancer): 0.7124 | AUC (UMUC1, Bladder Cancer): 0.6454 | AUC (UW228, Medulloblastoma): 1 | AUC (VMCUB1, Bladder Cancer): 0.6611 | AUC (VMRCRCW, Kidney Cancer): 0.8987 | AUC (VMRCRCZ, Kidney Cancer): 0.5968 | AUC (WM88, Melanoma): 0.5816 | AUC (WM793, Melanoma): 0.8497 | AUC (WM983B, Melanoma): 0.7071 | AUC (YAPC, Pancreatic Cancer): 0.8726 | AUC (YD10B, Head and Neck Cancer): 0.7608 | AUC (YD15, Head and Neck Cancer): 0.6259 | AUC (YD38, Head and Neck Cancer): 0.5959 | AUC (YH13, Glioblastoma): 0.7751
